The source of these data is patent US9695171B2, “3,4-disubstituted-1 H-pyrrolo[2,3-b]pyridines and 4,5-disubstituted-7H-pyrrolo[2,3-c]pyridazines as LRRK2 inhibitors” (Pfizer Inc., priority 2013, dated 2017).

This assay concerns the target T1, GST-tagged truncated LRRK2 (Homo sapiens, UniProt Q5S007).
T1 construct: GST-tagged truncated LRRK2 from Invitrogen (Cat # PV4874); GST; purchased Invitrogen PV4874
In words: LRRK2 kinase assay (Lantha Screen). As to conditions: 1 mM ATP (head); a = geometric mean of >=4 determinations, b = single determination; read-out: LRRK2 LANTHA EC50 at 1 mM ATP; Geometric mean of 2-3 determinations unless otherwise indicated. In kind it is biochemical. As for the experimental part:
LRRK2 kinase activity was measured using Lantha Screen technology from Invitrogen. GST-tagged truncated LRRK2 from Invitrogen (Cat # PV4874) was incubated with a fluorescein-labeled peptide substrate based upon ezrin/radixin/moesin (ERM), also known as LRRKtide (Invitrogen cat # PR8976A), in the presence of a dose response of compound. Upon completion, the assay was stopped and detected with a terbium labeled anti-phospho-ERM antibody (Invitrogen, cat # PR8975A). […] The compound dose response was prepared by diluting compound to a top concentration of 3.16 mM in 100% DMSO and serial diluted by half-log in DMSO 11 times. Aliquots (3.5 μL) of the 100% DMSO dose response were mixed with 46.5 μL water then 1 μL of this mixture was added to the 3 μL substrate mix in the 384-well plate. The kinase reaction was started with 3 μL of a working solution of LRRK2 enzyme at a concentration of 4 μg/mL. […] The reaction was allowed to progress at room temperature for two hours and then stopped with the addition of 7 μL of detection buffer (20 mM Tris pH 7.6, 0.01% NP-40, 0.02% NaN3, 6 mM EDTA with 2 nM terbium labeled anti-phospho-ERM). After an incubation of 1 hour at room temperature, the plate was read on an Envision with an excitation wavelength of 340 nm and a reading emission at both 520 nm and 495 nm. The ratio of the 520 nm and 495 nm emission was used to analyze the data.

T1 sequence (Q5S007 970-2527 limits assumed): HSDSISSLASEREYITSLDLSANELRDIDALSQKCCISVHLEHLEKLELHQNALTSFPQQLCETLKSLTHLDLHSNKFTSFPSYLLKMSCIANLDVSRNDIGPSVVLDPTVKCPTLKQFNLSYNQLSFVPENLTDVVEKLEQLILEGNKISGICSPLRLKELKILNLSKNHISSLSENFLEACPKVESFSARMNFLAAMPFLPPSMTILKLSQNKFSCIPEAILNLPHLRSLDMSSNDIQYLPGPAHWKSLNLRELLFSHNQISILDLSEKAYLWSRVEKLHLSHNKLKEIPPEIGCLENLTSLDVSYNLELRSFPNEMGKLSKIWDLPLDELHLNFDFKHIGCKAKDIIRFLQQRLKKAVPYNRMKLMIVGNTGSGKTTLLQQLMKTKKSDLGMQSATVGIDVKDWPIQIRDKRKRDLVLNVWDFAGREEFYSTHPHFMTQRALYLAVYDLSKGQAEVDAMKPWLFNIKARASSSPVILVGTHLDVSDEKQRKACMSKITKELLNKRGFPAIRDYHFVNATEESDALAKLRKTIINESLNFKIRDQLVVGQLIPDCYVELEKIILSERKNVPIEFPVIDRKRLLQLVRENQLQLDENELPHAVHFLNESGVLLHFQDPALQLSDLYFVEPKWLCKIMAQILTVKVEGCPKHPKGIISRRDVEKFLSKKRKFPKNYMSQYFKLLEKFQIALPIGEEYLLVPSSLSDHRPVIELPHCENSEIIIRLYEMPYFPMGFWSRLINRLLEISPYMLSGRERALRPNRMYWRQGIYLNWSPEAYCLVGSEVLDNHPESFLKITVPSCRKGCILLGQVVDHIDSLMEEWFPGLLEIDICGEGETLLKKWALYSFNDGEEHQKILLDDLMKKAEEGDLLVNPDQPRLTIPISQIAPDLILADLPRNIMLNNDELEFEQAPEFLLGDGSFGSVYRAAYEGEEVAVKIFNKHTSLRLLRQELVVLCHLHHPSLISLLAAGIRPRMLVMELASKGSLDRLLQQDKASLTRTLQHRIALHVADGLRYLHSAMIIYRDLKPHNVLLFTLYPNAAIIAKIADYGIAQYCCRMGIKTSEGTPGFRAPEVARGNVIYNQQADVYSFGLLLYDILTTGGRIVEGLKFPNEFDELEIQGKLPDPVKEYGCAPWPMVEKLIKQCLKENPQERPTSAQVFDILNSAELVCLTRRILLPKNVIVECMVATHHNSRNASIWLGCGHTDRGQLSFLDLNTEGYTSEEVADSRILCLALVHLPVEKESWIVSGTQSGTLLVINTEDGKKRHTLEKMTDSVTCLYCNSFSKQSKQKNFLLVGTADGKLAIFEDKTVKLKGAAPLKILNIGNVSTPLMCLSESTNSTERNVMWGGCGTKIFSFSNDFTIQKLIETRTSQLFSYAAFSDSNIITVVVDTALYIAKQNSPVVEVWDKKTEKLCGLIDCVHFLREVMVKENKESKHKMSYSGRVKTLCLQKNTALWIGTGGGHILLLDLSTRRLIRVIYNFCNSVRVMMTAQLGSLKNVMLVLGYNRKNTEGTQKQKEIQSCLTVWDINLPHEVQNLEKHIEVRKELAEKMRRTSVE

As for `COc1ccc(F)c(F)c1-c1c[nH]c2nccc(N3CCOCC3)c12` [Example 40, 3-(2,3-difluoro-6-methoxyphenyl)-4-(morpholin-4-yl)-1H-pyrrolo[2,3-b]pyridine], the EC50 came to 0.105 µM.
Next, `N#Cc1cc(-c2c[nH]c3nccc(N4CCOCC4)c23)ccc1F` [Example 41, 2-fluoro-5-[4-(morpholin-4-yl)-1H-pyrrolo[2,3-b]pyridin-3-yl]benzonitrile]: 0.226 µM; `COc1cncc(-c2c[nH]c3nccc(N4CCOCC4)c23)c1` [Example 42, 3-(5-methoxypyridin-3-yl)-4-(morpholin-4-yl)-1H-pyrrolo[2,3-b]pyridine]: 0.24 µM.
Next, `Cc1[nH]c2nccc(N3CCOCC3)c2c1-c1cccc(C#N)n1` [Example 43, 6-[2-methyl-4-(morpholin-4-yl)-1H-pyrrolo[2,3-b]pyridin-3-yl]pyridine-2-carbonitrile]: 0.0319 µM.
As for `Cn1cc(-c2c[nH]c3ncc(C#N)c(N4CCOCC4)c23)cn1` [Example 44, 3-(1-methyl-1H-pyrazol-4-yl)-4-(morpholin-4-yl)-1H-pyrrolo[2,3-b]pyridine-5-carbonitrile], the figure is 0.143 µM.
For the compound `N#Cc1cccc(-c2c[nH]c3ncc(C#N)c(N4CCOCC4)c23)c1F` [Example 45, 3-(3-cyano-2-fluorophenyl)-4-(morpholin-4-yl)-1H-pyrrolo[2,3-b]pyridine-5-carbonitrile], the EC50 came out at 0.0204 µM.
As for `Cc1cc(F)cc(-c2c[nH]c3ncc(C#N)c(N4CCOCC4)c23)c1` [Example 46, 3-(3-fluoro-5-methylphenyl)-4-(morpholin-4-yl)-1H-pyrrolo[2,3-b]pyridine-5-carbonitrile], the figure is 0.0296 µM; as for `N#Cc1ccc(F)c(-c2c[nH]c3nccc(N4CCOCC4)c23)c1` [Example 47, 4-fluoro-3-[4-(morpholin-4-yl)-1H-pyrrolo[2,3-b]pyridin-3-yl]benzonitrile], 0.144 µM.
Regarding `N#Cc1ccc(-c2c[nH]c3nccc(N4CCOCC4)c23)c(F)c1` [Example 48, 3-fluoro-4-[4-(morpholin-4-yl)-1H-pyrrolo[2,3-b]pyridin-3-yl]benzonitrile], the EC50 was 0.217 µM.
Next, `N#Cc1cc(CO)cc(-c2c[nH]c3nccc(N4CCOCC4)c23)c1` [Example 49, 3-(hydroxymethyl)-5-[4-(morpholin-4-yl)-1H-pyrrolo[2,3-b]pyridin-3-yl]benzonitrile]: 0.0508 µM.
Next, `Fc1ccc(-c2c[nH]c3nccc(N4CCOCC4)c23)cc1` [Example 50, 3-(4-fluorophenyl)-4-(morpholin-4-yl)-1H-pyrrolo[2,3-b]pyridine]: 0.191 µM.
As for `Cc1cncc(-c2c(C)[nH]c3nccc(N4CCOCC4)c23)c1` [Example 51, 2-methyl-3-(5-methylpyridin-3-yl)-4-(morpholin-4-yl)-1H-pyrrolo[2,3-b]pyridine], the figure is 0.191 µM; as for `Cc1[nH]c2nccc(N3CCOCC3)c2c1-c1cccc(Cl)c1` [Example 52, 3-(3-chlorophenyl)-2-methyl-4-(morpholin-4-yl)-1H-pyrrolo[2,3-b]pyridine], 0.158 µM; as for `Cc1[nH]c2nccc(N3CCOCC3)c2c1-c1ccccc1` [Example 53, 2-methyl-4-(morpholin-4-yl)-3-phenyl-1H-pyrrolo[2,3-b]pyridine], 0.201 µM.
For the compound `Cc1[nH]c2nccc(N3CCOCC3)c2c1-c1ccccc1F` [Example 54, 3-(2-fluorophenyl)-2-methyl-4-(morpholin-4-yl)-1H-pyrrolo[2,3-b]pyridine], the EC50 stood at 0.0916 µM.
As for `Cc1[nH]c2nccc(N3CCOCC3)c2c1-c1cccc(F)c1` [Example 55, 3-(3-fluorophenyl)-2-methyl-4-(morpholin-4-yl)-1H-pyrrolo[2,3-b]pyridine], the figure is 0.101 µM; as for `Cc1[nH]c2nccc(N3CCOCC3)c2c1-c1cc(F)cc(C#N)c1` [Example 56, 3-fluoro-5-[2-methyl-4-(morpholin-4-yl)-1H-pyrrolo[2,3-b]pyridin-3-yl]benzonitrile], 0.174 µM; as for `Cn1cc(-c2c[nH]c3nccc(N4CCCC(O)C4)c23)cn1` (stereo not shown) [Example 57, 1-[3-(1-methyl-1H-pyrazol-4-yl)-1H-pyrrolo[2,3-b]pyridin-4-yl]piperidin-3-ol], 0.0919 µM.
In the case of `C[C@H]1CN(c2ccnc3[nH]cc(-c4cnn(C)c4)c23)CCO1` [Example 58, 4-[(2S)-2-methylmorpholin-4-yl]-3-(1-methyl-1H-pyrazol-4-yl)-1H-pyrrolo[2,3-b]pyridine], the EC50 is 0.169 µM.
In the case of `Cn1cc(-c2c[nH]c3nccc(N4CCCC(F)(F)C4)c23)cn1` [Example 59, 4-(3,3-difluoropiperidin-1-yl)-3-(1-methyl-1H-pyrazol-4-yl)-1H-pyrrolo[2,3-b]pyridine], the EC50 worked out at 0.197 µM.
Turning to `Cn1cc(-c2c[nH]c3nccc(N4CCCC(CO)C4)c23)cn1` (stereo not shown) [Example 60, {1-[3-(1-methyl-1H-pyrazol-4-yl)-1H-pyrrolo[2,3-b]pyridin-4-yl]piperidin-3-yl}methanol], the EC50 worked out at 0.14 µM.
As for `Cn1cc(-c2c[nH]c3nccc(N4C[C@H]5CC[C@@H](C4)O5)c23)cn1` [Example 61, 3-(1-methyl-1H-pyrazol-4-yl)-4-(8-oxa-3-azabicyclo[3.2.1]oct-3-yl)-1H-pyrrolo[2,3-b]pyridine], the figure is 0.221 µM; as for `CN(C)c1ccnc2[nH]cc(-c3cnn(C)c3)c12` [Example 62, N,N-dimethyl-3-(1-methyl-1H-pyrazol-4-yl)-1H-pyrrolo[2,3-b]pyridin-4-amine], 0.185 µM.
As for `Cn1cc(-c2c[nH]c3nccc(N4CCSCC4)c23)cn1` [Example 63, 3-(1-methyl-1H-pyrazol-4-yl)-4-(thiomorpholin-4-yl)-1H-pyrrolo[2,3-b]pyridine], the figure is 0.0719 µM; as for `Cn1cc(-c2c[nH]c3nccc(N4CCC(F)(F)C4)c23)cn1` [Example 64, 4-(3,3-difluoropyrrolidin-1-yl)-3-(1-methyl-1H-pyrazol-4-yl)-1H-pyrrolo[2,3-b]pyridine], 0.195 µM; as for `N#Cc1cccc(-c2c[nH]c3nccc(C4=CCOCC4)c23)c1` [Example 65, 3-[4-(3,6-dihydro-2H-pyran-4-yl)-1H-pyrrolo[2,3-b]pyridin-3-yl]benzonitrile], 0.00717 µM.
As for `N#Cc1cccc(-c2c[nH]c3nccc(N4CCCC(O)C4)c23)c1` (stereo not shown) [Example 66, 3-[4-(3-hydroxypiperidin-1-yl)-1H-pyrrolo[2,3-b]pyridin-3-yl]benzonitrile], the figure is 0.0243 µM; as for `COCC1CN(c2ccnc3[nH]cc(-c4cccc(C#N)c4)c23)CCO1` (stereo not shown) [Example 67, 3-{4-[2-(methoxymethyl)morpholin-4-yl]-1H-pyrrolo[2,3-b]pyridin-3-yl}benzonitrile], 0.022 µM.
Take `c1cc(N2CCOCC2)c2c(-c3cn[nH]c3)c[nH]c2n1` [Example 68, 4-(morpholin-4-yl)-3-(1H-pyrazol-4-yl)-1H-pyrrolo[2,3-b]pyridine]: the EC50 came to 0.0305 µM.
Next, `N#Cc1cccc(-c2c[nH]c3nccc(N4CCCOCC4)c23)c1` [Example 69, 3-[4-(1,4-oxazepan-4-yl)-1H-pyrrolo[2,3-b]pyridin-3-yl]benzonitrile]: 0.15 µM; `N#Cc1cccc(-c2c[nH]c3nccc(N4CCC(O)CC4)c23)c1` [Example 70, 3-[4-(4-hydroxypiperidin-1-yl)-1H-pyrrolo[2,3-b]pyridin-3-yl]benzonitrile]: 0.0853 µM.
